No end group written: not given here. Me3 = trimethyl (trimethylated lysine)
Tests used:
CD = biological target: T1, CD (Homo sapiens, UniProt P83916); assay: Phase transition droplet detection of the interaction between H3K9me3 and CD (SGS-CD, His-SGP, Hfq-mCherry-PDZ); assay type: binding; conditions: systems 15-20 with Hfq-mCherry-PDZ; mixture completely composed of the named peptide; all components 1 μM
T1 construct: His-SGS (His-tag, SmF, GFP, SH3 and linking regions); made in house; host or cells: E. coli BL21 (DE3)
T1 sequence (P83916 19-83): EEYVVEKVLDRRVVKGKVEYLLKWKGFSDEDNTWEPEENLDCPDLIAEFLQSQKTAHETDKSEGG
Description: The concentrations of His-SGS, SGS-CD, His-SGP, Hfq-mCherry-PDZ, mCherry-PDZ and the mixture of H3K9me3-KKETPV and H3K9-KKETPV in the corresponding systems were all 1 μM:
In Table 2, “+” represents that the substance is contained; “−” represents that the substance is not contained; “*” represents a mixture of H3K9me3-KKETPV and H3K9-KKETPV. In the systems 9-14, the molar percentages of H3K9me3-KKETPV in the mixture of H3K9me3-KKETPV and H3K9-KKETPV were 0, 0.2, 0.4, 0.6, 0.8 and 1.0, respectively, and in the systems 15-20, the molar percentages of H3K9me3-KKETPV in the mixture of H3K9me3-KKETPV and H3K9-KKETPV were 0, 0.2, 0.4, 0.6, 0.8 and 1.0, respectively.
(§1) Each of the above systems was subjected to a static incubation at 4° C. until the phase transition droplets in the systems in which phase transitions occurred completely settled to the bottom of the well plate, and the images were collected using a confocal high-content imaging microscope.

[1] = biological target: T2, interaction between FKBP and FRB (Homo sapiens, UniProt P42345+P62942); assay: Phase transition droplet detection of the effect of a regulatory factor on the FKBP-FRB interaction (SGS-FKBP, mCherry-FRB, His-SGP); assay type: binding; conditions: rapamycin 0.2-1.0 μM, ampicillin control, mCherry-FRB and His-SGP all 1 μM, static incubation at 4° C.
T2 construct: His-SGS (His-tag, SmF, GFP, SH3 and linking regions); His-tag (N); made in house; host or cells: E. coli BL21 (DE3)
T2 sequence (P62942 with tags, fused parts or gaps): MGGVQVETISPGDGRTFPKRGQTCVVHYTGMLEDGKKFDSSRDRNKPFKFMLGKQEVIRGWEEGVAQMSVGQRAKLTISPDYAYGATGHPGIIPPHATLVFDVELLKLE
T2 sequence (P42345 with tags, fused parts or gaps): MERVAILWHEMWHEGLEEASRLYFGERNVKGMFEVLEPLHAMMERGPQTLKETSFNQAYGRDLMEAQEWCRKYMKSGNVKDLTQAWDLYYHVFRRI
Description: Different concentrations of rapamycin were set to obtain experimental systems with different concentrations of rapamycin.
Each of the above systems was subjected to static incubation at 4° C. until the phase transition droplets in the systems in which phase transitions occurred completely settled to the bottom of the well plate, and the image of each system was collected using a confocal high-content imaging microscope and the intensity of the red fluorescence signal in the phase transition droplets in each well plate was counted and analyzed.

[2] = biological target: T3, interaction between P53 and MDM2 (Homo sapiens, UniProt Q00987); assay: Phase transition droplet detection of the effect of a regulatory factor on the P53-MDM2 interaction (SGS-P53, mCherry-MDM2, His-SGP); assay type: binding; parameters: His-tag (N); made in house; host or cells: E. coli BL21 (DE3); conditions: MI-773 1.25-25 μM, ampicillin 25 μM; SGS-P53, mCherry-MDM2 and His-SGP all 0.5 μM; static incubation at 4° C.
T3 sequence (Q00987 with tags, fused parts or gaps): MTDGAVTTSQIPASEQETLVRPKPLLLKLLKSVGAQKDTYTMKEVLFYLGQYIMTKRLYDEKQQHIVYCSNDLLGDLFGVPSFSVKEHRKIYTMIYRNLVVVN
Description: the solutions of SGS-P53, mCherry-MDM2, His-SGP and ampicillin were mixed, and then 20 μL of the resulting mixture was transferred to a 384-microwell plate to obtain an ampicillin control system and the concentrations of SGS-P53, mCherry-MDM2 and His-SGP were all 0.5 μM in the ampicillin control system, and the concentration of ampicillin was 25 μM;
According to the above system, the solutions of SGS-P53, mCherry-MDM2, His-SGP and MI-773 were mixed, and then 20 μL of the resulting mixture was transferred into a 384-microwell plate. Different concentrations of MI-773 were set to obtain experimental systems with different concentrations of MI-773. The concentration of MI-773 in each experimental system was 0 (i.e., KMEI buffer), 1.25, 2.5, 5, 10, 15, and 25 μM, respectively, one concentration per well, and in each experimental system, the concentrations of SGS-P53, mCherry-MDM2 and His-SGP were all 0.5 μM.
as §1, with “to” for “to a”, “image of each system was” for “images were”, “microscope and the intensity of the red fluorescence signal in the phase transition droplets in each well plate was counted and analyzed.” for “microscope.”

[3] = biological target: T3, interaction between P53 and MDM2; assay: Intracellular detection of the P53-MDM2 interaction in HEK293 cells co-transfected with GFP-NUPN-P53 and mCherry-MDM2; assay type: cell-based; conditions: system 8, final concentration of 5 μM, same field before and after treatment
Description: Each recombinant vector obtained in step I was transfected (or co-transfected) into HEK293 cells (adherent culture) according to the following combinations, and the transfection reagent Hifectin I (Beijing Dinoao Biotechnology Co., Ltd.) was used, and the operation was performed according to the instruction of the reagent. The combinations and the amount of the transfection vector(s) per 105 HEK293 cells were as follows:
combination 1: pcDNA3.1-GFP-NUPN, the transfection dosage of the vector was 1 μg; combination 2: pcDNA3.1-mCherry, the transfection dosage of the vector was 1 μg; combination 3: pcDNA3.1-GFP-NUPN+pcDNA3.1-mCherry, the transfection dosages of these two vectors were 0.5 μg and 0.5 μg, respectively; combination 4: pcDNA3.1-GFP-NUPN-P53, the transfection dosage of the vector was 1 μg; combination 5: pcDNA3.1-GFP-NUPN-P53+pcDNA3.1-mCherry, the transfection dosages of these two vectors were 0.5 μg and 0.5 μg, respectively; combination 6: pcDNA3.1-mCherry-MDM2, the transfection dosage of the vector was 1 μg; combination 7: pcDNA3.1-GFP-NUPN+pcDNA3.1-mCherry-MDM2, the transfection dosages of these two vectors were 0.5 μg and 0.5 μg, respectively; combination 8: pcDNA3.1-GFP-NUPN-P53+pcDNA3.1-mCherry-MDM2, the transfection dosages of these two vectors were 0.5 μg and 0.5 μg, respectively. […]

| Compound | red fluorescence signal (mCherry) in the phase transition droplets (CD) | effect on the interaction between FRB and FKBP (red fluorescence signal in the phase transition droplets) [1] | effect on the interaction between P53 and MDM2 (red fluorescence signal in the phase transition droplets) [2] | effect on the interaction between P53 and MDM2 in cells (accumulation of red fluorescent signal in the second phase) [3] |
| --- | --- | --- | --- | --- |
| H3K9-KKETPV: unmethylated peptide as shown in SEQ ID NO: 23, used as a control (ARTKQTARGGSGGSGGSWGGSKKETPVAV) | no significant red fluorescence | – | – | – |
| CC1(C)S[C@@H]2[C@H](NC(=O)[C@H](N)c3ccccc3)C(=O)N2[C@H]1C(=O)O [ampicillin] | – | does not affect | does not affect | – |
| CC(C)(C)C[C@@H]1N[C@@H](C(=O)N[C@H]2CC[C@H](O)CC2)[C@H](c2cccc(Cl)c2F)[C@]12C(=O)Nc1cc(Cl)ccc12 [MI-773] | – | – | significantly inhibit | significantly inhibit |
| CN[C@@H](C)C(=O)N[C@H](C(=O)N1CCC[C@H]1C(=O)Nc1snnc1-c1ccccc1)C1CCCCC1 [GDC0152] | – | – | – | does not affect |
| ARTK (Me) 3QTARGGSGGSGGSWGGSKKETPVAV (ARTK(Me3)QTARGGSGGSGGSWGGSKKETPVAV) [H3K9me3-KKETPV] | reached the highest | – | – | – |
